Test results reported in patent US20100129289A1, “COMPOSITIONS AND METHODS FOR THE DETECTION OF VULNERABLE PLAQUE” (THE OHIO STATE UNIVERSITY RESEARCH FOUNDATION, priority 2006, published 2010).
“Also recorded” adds a separate entry of the source. One block for each substance: values may come before it. Ends that are not written are not given here. * marks the point of attachment. Biotin = O=C1N[C@H]2[C@H](CS[C@H]2CCCCC(=O)*)N1

What was measured:
[1] = test system: WHHL rabbit aortic tissue (intima); assay: Resected WHHL rabbit aortic tissue peptide binding assay; settings: for positive binding / staining on WHHL tissue samples: five to seven tissue samples per peptide; for staining on WHHL aortic tissue: overall statement across experiments; for staining of corresponding WHHL tissue samples: sections FIG. 10(c) (peptide 4) and FIG. 11(a) (peptide 3); for staining of individual WHHL tissue sections: sections FIG. 10(d) (peptide 4) and FIG. 11(b) (peptide 3); for staining on WHHL tissue, original versus randomized sequence: one experiment on a WHHL rabbit, FIGS. 14 and 15
Description: (§1) Experiments were performed to determine if the synthesized peptides could bind to the intima of the WHHL (diseased) rabbits but not to the NZW (control) rabbits. The following procedure is shown schematically in FIG. 2. The animals were anesthetized, injected with 0.7-1.0 mL heparin, and perfused with 200-300 mL Hanks buffered salt solution containing 1% BSA. A segment of the aorta comprising the aortic arch to the bifurcation of the aorta in the lower abdomen was removed and placed in a buffer solution of Hanks w/1% BSA and 1% protease inhibitor cocktail (Sigma, P8340). The aorta segments were opened longitudinally and sliced into individual pieces approximately 1-2 mm^2 each. These pieces were then placed into tubes containing individual peptides at a concentration of 5 μg/mL in the same buffer solution described above.
(§2) The tissue sections were incubated with individual peptides for 45-60 minutes at room temperature. Samples were washed 3× with PBS followed by incubation with SA-HRP or anti-FLAG-HRP in the same buffer for 45-60 minutes at room temperature. After another 3× washing, the samples were incubated with DAB for 30 minutes in the same buffer. After a final round of washing, tissue samples were imaged with a dissecting microscope and analyzed for the presence of brown staining on the endothelial surface. […] Some tissue sections received no peptide incubation; rather they were exposed only to SA-HRP or anti-FLAG-HRP as a control.

[2] = test system: aorta of ApoE knockout mice; assay: ApoE knockout mice in vivo peptide binding assay; design: species or system mouse; settings: 1 hour circulation, SA-HRP or anti-FLAG-HRP with DAB
Description: In the peptide binding assays, individual peptides are injected into an anesthetized mouse and allowed to circulate in vivo for 1 hour. Note that this is different from the WHHL/NZW binding assays where the aorta is first resected and then incubated with peptide. The animal is then fixed via cardiac perfusion with 4% formaldehyde, and the aorta is removed to test for binding of the peptide. The detection assay is the same assay described herein: either SA-HRP or anti-FLAG-HRP is added to the solution containing the resected tissue, followed by the addition of the DAB substrate, after which the tissue samples are sectioned and imaged.

[3] = test system: atherosclerotic lesion endothelium of ApoE knockout mice; settings: mouse; cited from earlier work
lipid-loaded HAECs = assay: Lipid-loaded HAEC peptide binding assay; assay type: cell-based, human; settings: peptide 1, 5 or 100 μg/mL; SA-HRP or anti-FLAG-HRP with DAB
Description: Human aortic endothelial cells (HAECs) were loaded with acetylated low-density lipoprotein as described herein. Peptide binding assays were performed 24 hours after the third lipid-loading of the cells. Control cells grown in the standard media without added lipid were cultured for the same amount of time as the lipid-loaded HAECs.
The general procedure for the peptide binding assays was conducted as follows (see FIG. 1). Variations on this method will be discussed as well. Both the lipid- and non-lipid-loaded cells were imaged prior to the assays to verify morphological differences between the two conditions of the cells. The media was aspirated and cells were washed 3× with cold wash buffer (PBS w/Ca^2+, […] with 2% FBS), followed by a 5 minute incubation on ice to minimize internalization of peptides. Cold blocking buffer (PBS w/1% BSA) was added to the cells for 15 minutes to prevent nonspecific binding. Peptides were then added to the cells in cold blocking buffer at 1, 5, or 100 μg/mL and incubated for 1 hour on ice. Following incubation, cells were washed 3×, and either streptavidin horseradish peroxidase (SA-HRP) or anti-FLAG horseradish peroxidase (anti-FLAG-HRP) was added to the cells in cold blocking buffer at the recommended concentrations provided by the manufacturers. […]

[4] = test system: human atherosclerotic lesions; settings: cited from earlier work
[5] = test system: NZW rabbit aortic tissue (intima); assay: Resected NZW rabbit aortic tissue peptide binding assay; settings: for staining / binding on NZW tissue: peptide 9 at 1× concentration, FIG. 12
Description: as §1, §2

[6] = test system: frozen WHHL aorta tissue sections; assay: Direct staining on frozen WHHL rabbit tissue sections; assay type: binding; settings: for staining of frozen WHHL aorta tissue sections: peptide 1 μg/mL, 4 μm sections, FIG. 22
Description: Some of the resected WHHL and NZW aortic arch tissues were frozen and sectioned into 4 μm slices. Binding assays were performed on these frozen sections in a similar manner to that described herein. Sections were thawed and incubated with blocking buffer (Hanks w/1% BSA) for 30 minutes. Individual peptides were added to the slides in blocking buffer at a concentration of 1 μg/mL. After 45 minutes of incubation, the slides were washed and either SA-HRP or anti-FLAG-HRP, depending on the modification of the peptides, was added at the recommended concentration and allowed to incubate for 1 hour. The slides were washed again, and the DAB substrate was added and incubated for 30 minutes while looking for brown color development. After washing away the DAB, the tissue samples were fixed with 10% buffered formalin for 10 minutes followed by counterstaining with hemotoxylin. The slides were then mounted with permount and glass coverslips for imaging. The standard SA-HRP and anti-FLAG-HRP controls were performed for these experiments as well.

[7] = test system: WHHL rabbit aortic tissue (intima); assay: Resected WHHL rabbit aortic tissue peptide binding assay
[8] = 10× concentration (˜100 μg/mL) versus 1×, FIG. 13

positive binding / staining on WHHL tissue samples ([1]; Exp217 (FIG. 19)): stained
Substance: CKSDANSHC [Peptide 2]

positive binding / staining on WHHL tissue samples ([1]; Exp223 (FIG. 21)): some staining
Substance: TDTTMGQVHRHP [Peptide 37]

positive binding / staining on WHHL tissue samples ([1]; Exp201 (FIG. 18)): showed staining on one tissue sample | positive binding / staining on WHHL tissue samples ([1]; Exp217 (FIG. 19)): slight staining
Substance: TSPQTKDC [Peptide 7]
binding to aorta after in vivo circulation of peptide [2]: did not yield positive results

Substance: SSLPAPPWPLRG [Peptide 6]
positive binding / staining on WHHL tissue samples ([1]; Exp201 (FIG. 18)): showed staining on one tissue sample | positive binding / staining on WHHL tissue samples ([1]; Exp217 (FIG. 19)): slight staining

positive binding / staining on WHHL tissue samples ([1]; Exp223 (FIG. 21)): some staining
Substance: CHPASSPQC [Peptide 34]

positive binding / staining on WHHL tissue samples ([1]; Exp201 (FIG. 18)): showed staining on one tissue sample
Substance: CNHRYMQMC [Peptide 11, reference compound]
binding to atherosclerotic lesion endothelium of ApoE knockout mice in vivo [3]: shown to bind

positive binding / staining on WHHL tissue samples ([1]; Exp201 (FIG. 18)): showed staining on one tissue sample
Substance: CVMPGLKNC [Peptide 10]

positive binding / staining on WHHL tissue samples ([1]; Exp201 (FIG. 18)): showed staining on one tissue sample
Substance: CKQSFEKSC [Peptide 1]

positive binding / staining on WHHL tissue samples ([1]; Exp201 (FIG. 18)): showed staining on one tissue sample | positive binding / staining on WHHL tissue samples ([1]; Exp219 (FIG. 20)): some staining
Substance: SSSKMQAAHQLP [Peptide 24]

positive binding / staining on WHHL tissue samples ([1]; Exp217 (FIG. 19)): stained
Substance: KSLSRHDHIHHH [Peptide 16]

binding to lipid-loaded HAECs (brown staining) (lipid-loaded HAECs): negative result for binding
Substance: CDSIKWPNC [Peptide 23]

positive binding / staining on WHHL tissue samples ([1]; Exp217 (FIG. 19)): stained
Substance: SIGYPLP [Peptide 13, reference compound]

positive binding / staining on WHHL tissue samples ([1]; Exp217 (FIG. 19)): stained
Substance: CAPGPSKSC (cysteine pairing not given here; also: N-terminal biotin or C-terminal FLAG, which one not given here) [Peptide 12]
binding to atherosclerotic lesion endothelium of ApoE knockout mice in vivo [3]: bound | binding to human atherosclerotic lesions ex vivo [4]: bound

positive binding / staining on WHHL tissue samples ([1]; Exp217 (FIG. 19)): stained
Substance: CKQSPPSMC [Peptide 14]

binding to lipid-loaded HAECs (brown staining) (lipid-loaded HAECs): negative result for binding
Substance: TAPHHSTPANVP [Peptide 17]

staining on WHHL aortic tissue [1]: above-average reproducible staining | staining of corresponding WHHL tissue samples [1]: very little, if any, brown staining | staining of individual WHHL tissue sections [1]: best staining | staining / binding on NZW tissue [5]: no binding
Substance: TPLEVHPESLPW [Peptide 3]

Substance: Biotin-RNPGYTYHIALG [Peptide 4R]
staining on WHHL tissue, original versus randomized sequence [1]: much less staining compared to the original sequences

positive binding / staining on WHHL tissue samples ([1]; Exp223 (FIG. 21)): some staining
Substance: NLTSLTQGSAML [Peptide 39]

positive binding / staining on WHHL tissue samples ([1]; Exp219 (FIG. 20)): some staining
Substance: APHYLKTAPPPN [Peptide 28]

staining on WHHL aortic tissue [1]: above-average reproducible staining | staining of corresponding WHHL tissue samples [1]: very little, if any, brown staining | staining of individual WHHL tissue sections [1]: good staining | staining / binding on NZW tissue [5]: no binding
Substance: YITPYAHLRGGN [Peptide 4]

positive binding / staining on WHHL tissue samples ([1]; Exp223 (FIG. 21)): some staining
Substance: NADNQMTWRHVL [Peptide 38]

positive binding / staining on WHHL tissue samples ([1]; Exp201 (FIG. 18)): showed staining on one tissue sample
Substance: CNKNSIPHC [Peptide 20]

Substance: Biotin-PPEEWSPVTHLL [Peptide 3R]
staining on WHHL tissue, original versus randomized sequence [1]: much less staining compared to the original sequences

binding to regions of plaque, dependence on dose ([1]; WHHL aortic tissue): dose-dependent manner | staining on WHHL aortic tissue [1]: consistently shows staining | staining on WHHL tissue at 10-fold increased concentration [7, 8]: increases dramatically
Substance: TQTPIKHHLLKE [Peptide 9]
location of staining in sectioned WHHL aorta ([1]; histological sections, Hoechst stain, 400×, FIG. 16): localized to the intimal layer, with no infiltration into the plaque region; also recorded: localized to the intimal layer of the aorta | staining over plaque versus non-plaque regions of WHHL aorta ([1]; histological sections, FIG. 17): present on intima covering regions of plaque but not over non-plaque regions; also recorded: seen over plaque-rich regions | staining on WHHL tissue, original versus randomized sequence [1]: stronger than the staining seen from peptide 9R | staining on NZW tissue at 10-fold increased concentration [5, 8]: remains the same as the staining seen with the 1× concentration | staining / binding on NZW tissue [5]: some slight staining; also recorded: light, distinct staining pattern; also recorded: slight background staining | binding to frozen tissue samples ([6]; frozen WHHL and NZW tissue): showed binding | staining of frozen WHHL aorta tissue sections [6]: strong brown staining on the surface; also recorded: stains the intimal surface | binding to aorta after in vivo circulation of peptide [2]: did not yield positive results | staining on WHHL aortic tissue relative to anti-FLAG-HRP control sections ([7]; 1× concentration (˜10 μg/mL), FIGS. 8 and 9, two WHHL rabbits): more total staining, and the staining is very distinct

Substance: ILTHEHTLPKQ-FLAG (ILTHEHTLPKQ-{FLAG}) [Peptide 9R]
staining of frozen WHHL aorta tissue sections [6]: no staining; also recorded: no binding
